This is an account of results in US20190365927A1, “COMPOSITION FOR PHOTODYNAMIC THERAPY USING GENE EXPRESSING FLUORESCENT PROTEIN AND PHOTOSENSITIZER, AND PHOTODYNAMIC THERAPY METHOD USING SAME” (priority 2017, published 2019).

The structures appear in SMILES notation.

One data set relates to eGFP+ 4T1 cells. Put plainly: In vitro PDT with rose bengal and blue laser light, MTT analysis. Format: cell-based. As to the method: The photo inducing death of GFP− and GFP+ cells after blue light irradiation was measured by MTT analysis in the presence or absence of rose bengal (RB). The specific experimental procedure is as follows.
RB was diluted with DMEM containing 10% FBS to produce RB at concentrations of 6.25, 12.5, 25, 50, and 100 μM. GFP− and GFP+ cells were pre-incubated in 96-well, black, and clear bottom plates at a density of 2×10^4 cells per well. Then cells were incubated with RB for 4 hours. The addition of a fresh culture medium without photosensitizer to the wells was performed. This was used as an untreated control. Cells were washed 3 times with PBS buffer.
In the PDT-treated group, the cell was irradiated with blue laser light (473 nm, radiation dose rate=80 mW/cm^2) for 1 to 60 seconds. The toxicity of pure RB on GFP+ and GFP− cells was measured in the dark room. After the irradiation, the fresh culture medium was added to the wells, and cells were cultured again for 24 hours. The medium was then measured by MTT assay. 150 μL of solubilizing solution and stop solution were added thereto, followed by incubation at 37° C. for 4 hours. The absorbance of the reaction solution was measured at 570 nm. Cell viability was calculated by the following equation:
(ODtreated/ODcontrol)×100%.
Each experiment was performed independently. Cell death was measured by LDH analysis.
Th cells were seeded on a 24-well plate at a density of 5×10^4 per well. After the photosensitizer treatment thereto, blue light was irradiated thereto as described above. Each culture medium was prepared. For LDH analysis, LDH Cytotoxicity Assay kit (Cayman Chemical Company, Ann Arbor, Mich., USA) was used according to the producer protocol. 100 μL of the supernatant of the cultured cells was transferred from the well to a corresponding well of the new plate, and then 100 μL of the reaction solution was added to each well. The plates were incubated for 30 minutes at room temperature while executing gentle shaking thereof with an orbital shaker. The absorbance was measured at 490 nm using a plate reader.

The test system of data set [1] is eGFP+ and eGFP− H460 and B16F10 tumors. Description: Tumor-transplanted animal test (cFRET PDT). Format: in vivo, mice. As to the method:
B 16F10 and GFP-B16-F0 Melanoma cells were harvested using a cell lifter and were resuspended in serum-free DMEM. Approximately 2×10^6/100 μL of B16F10 and GFP-B16-F0 melanoma cells were subcutaneously injected into both sides of female C57BL/6 mice. After 10 to 15 days, mice were divided into 4 groups based on the mean tumor diameter when the mean tumor diameter reached a minimum of 0.3 cm. The mice were then randomly divided into 4 groups (n=5 per group). Control animals received 0.9% saline instead of chemical substance.
In the experimental group, RB ([…], 53 nM/mL) was intravenously administered thereto twice a week, and blue light (2 min) was irradiated to the tumor site in 4 hours after the injection. The mouse body weight and tumor volume were measured twice a week. Three weeks later, the mice were euthanized. Tumors were removed therefrom and fixed to 10% neutral buffered formalin. The next day, the image was captured. Similar experiments were performed on GFP+ and GFP-H460 cells. About 2×10^6/100 μL of cells were injected subcutaneously into both sides thereof.

For data set [2], the system named is GFP cells and non-GFP cells. Put plainly: Peristaltic pump experiment, Hoechst 33342 and PI double staining. Conditions: 100 μM RB, 4 hours, flow 1 ml/min, 473 nm at 80 mW, repeated passes. Format: cell-based. As to the method: (1) Non-GFP and GFP cells were seeded in a 100 mm dish at a density of 1×10^7 cells. The next day, 100 μM of rose bengal (RB, santacruz, sc-203757) was applied thereto (in the subsequent procedure, light exposure was avoided as much as possible). A 4 mm ID×6 mm OD×1 mm wall sized transparent tube (Tygon, E-3603) was connected to an EP-1 Econo Pump (Bio-rad, 731-9001) in the dark room. A laser device was prepared.
In four hours after the RB treatment, cells were harvested using trypsin, suspended in 20 ml of the culture medium, and placed in a 50 ml tube. Using a pump, the cell solution passed through the tubing at a flow rate of 1 ml/min and was irradiated with light of 473 nm at an intensity of 80 mW. This process was repeated 2, 4, 8, and 10 times. The resulting cells were seeded in a 1-ml 12-well plate. The next day, double staining was performed to compare the death amounts of non-GFP and GFP cells with each other.
0.5×10^7 of non-GFP cells and 0.5×10^7 of GFP cells were mixed with each other (total 1×10^7). […]
PDT-treated cells were seeded onto a 12-well plate (1 mL per well) while controlling the PDT-treated cells to have a confluence of 50% or larger. […] The number of dead cells (PI-stained cells)/total number of cells*100 per cell image was calculated. Then, the cell death percentage was measured by calculating the average value between the calculated values of three cell images.

`O=C1OC2(c3cc(I)c(O)c(I)c3Oc3c2cc(I)c(O)c3I)c2c(Cl)c(Cl)c(Cl)c(Cl)c21` [RB, rose bengal]: the “selective cell death of eGFP+ versus eGFP− 4T1 cells” value in the data set with eGFP+ 4T1 cells (blue laser light (473 nm), FIG. 1B) is on record as “the cells selectively died”. The “eGFP+ cells selectively killed” value in the data set on eGFP+ 4T1 cells (exposed to 473 nm laser light after RB treatment, FIG. 2A) was roughly 60%. In addition, the “cytotoxicity, eGFP+ versus eGFP− cells” value with eGFP+ 4T1 cells (extremely high concentrations of RB and extremely long exposure time, FIG. 2C) is “a similar level of cytotoxicity was observed between eGFP+ and eGFP− cells”. The “cell death percentage, eGFP+ versus eGFP− cells” value with eGFP+ 4T1 cells (higher RB concentration and longer exposure time, FIG. 2C) is listed as “cell death percentage of eGFP+ cells was higher than that of eGFP− cells”. Besides, the tumor growth result in data set [1] (GFP+ B16F10 cells in mouse, 473 nm laser light, FIG. 3D, 3E) was “remarkable tumor inhibiting effect”. The “eGFP+ cells removed in grafted tumor” value in data set [1] (mixture of eGFP+ and eGFP− sublines of H460 and B16F10 grafted to mouse, after second round of 473 nm irradiation, FIG. 3B, 3C) was roughly 80%. Also, the “death of GFP versus non-GFP cells in mixed culture” value in data set [2] is reported as “only GFP cells were specifically killed”.
